In ChEMBL document CHEMBL3301562, “MMV Box screening against Plasmodium falciparum protein kinases and aminoacyl tRNA synthetases”:

Legend:
Format in all cases: functional
[1] = biological target: T1, Calcium-dependent protein kinase 4 (Plasmodium falciparum (isolate 3D7), UniProt Q8IBS5); experiment: MMV: CDPK4 Protein kinase inhibition assay using recombinant PfCDPK4, syntide2 peptide substrate, ATP and KinaseGlo to measure % inhibition at 1 uM MMV box compound.
T1 sequence (Q8IBS5 whole entry): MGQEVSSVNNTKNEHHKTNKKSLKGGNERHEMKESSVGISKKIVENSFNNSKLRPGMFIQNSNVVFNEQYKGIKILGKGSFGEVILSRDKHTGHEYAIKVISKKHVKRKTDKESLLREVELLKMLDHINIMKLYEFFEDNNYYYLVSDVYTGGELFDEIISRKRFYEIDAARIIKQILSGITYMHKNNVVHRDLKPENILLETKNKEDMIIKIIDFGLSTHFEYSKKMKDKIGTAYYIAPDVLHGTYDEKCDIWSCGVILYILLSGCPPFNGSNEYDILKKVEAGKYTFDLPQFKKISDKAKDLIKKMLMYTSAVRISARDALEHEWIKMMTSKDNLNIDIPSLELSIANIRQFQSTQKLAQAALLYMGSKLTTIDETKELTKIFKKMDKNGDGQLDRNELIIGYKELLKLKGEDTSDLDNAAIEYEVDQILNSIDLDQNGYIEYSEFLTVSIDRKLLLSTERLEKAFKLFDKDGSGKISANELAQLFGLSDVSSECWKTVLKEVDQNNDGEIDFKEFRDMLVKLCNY

Lysine--tRNA ligase = Lysine--tRNA ligase (Plasmodium falciparum (isolate 3D7), UniProt Q8IDJ8); experiment: MMV: KRS recombinant Plasmodium falciparum Lysyl-tRNA-synthetase, assay with yeast tRNA, ATP, and lysine and 3 uM MMV malaria box compound, assay read out with kinase glo as % inhibition.
Proline--tRNA ligase = biological target: T2, Proline--tRNA ligase (Plasmodium falciparum (isolate 3D7), UniProt Q8I5R7); experiment: MMV: ProRS recombinant Plasmodium falciparum Prolyl-tRNA-synthetase, assay with yeast tRNA, ATP, and proline and 3 uM MMV malaria box compound, assay read out with kinase glo as % inhibition.
T2 sequence (Q8I5R7 whole entry): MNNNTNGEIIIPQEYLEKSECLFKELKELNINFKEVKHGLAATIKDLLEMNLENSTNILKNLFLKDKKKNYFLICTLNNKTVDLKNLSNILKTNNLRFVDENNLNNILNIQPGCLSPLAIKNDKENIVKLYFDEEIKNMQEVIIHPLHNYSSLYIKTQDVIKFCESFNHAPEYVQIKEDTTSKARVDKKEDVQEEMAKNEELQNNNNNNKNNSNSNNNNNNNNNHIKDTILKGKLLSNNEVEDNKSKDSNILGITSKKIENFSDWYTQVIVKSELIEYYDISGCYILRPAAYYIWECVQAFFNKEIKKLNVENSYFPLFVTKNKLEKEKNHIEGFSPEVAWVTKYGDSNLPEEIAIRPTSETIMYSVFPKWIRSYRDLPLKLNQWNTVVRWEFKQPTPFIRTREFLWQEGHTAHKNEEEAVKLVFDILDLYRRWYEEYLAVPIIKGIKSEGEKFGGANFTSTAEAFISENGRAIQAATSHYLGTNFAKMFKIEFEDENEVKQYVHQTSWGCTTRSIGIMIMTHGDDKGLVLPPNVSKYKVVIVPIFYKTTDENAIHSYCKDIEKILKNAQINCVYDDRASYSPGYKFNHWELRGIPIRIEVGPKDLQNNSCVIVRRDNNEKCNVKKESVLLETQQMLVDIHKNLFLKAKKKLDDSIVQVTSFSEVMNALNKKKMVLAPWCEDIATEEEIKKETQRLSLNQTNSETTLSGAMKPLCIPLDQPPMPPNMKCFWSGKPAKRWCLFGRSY

[2] = biological target: T3, Mitogen-activated protein kinase (Plasmodium falciparum, UniProt Q25917); experiment: Final concentrations were 1 uM ATP, 0.5 mM DTT, 1 mM MgCl2, 0.5 mg/mL BSA, and 10 ug/ml MAP2 in a buffer of 50 mM HEPES (pH 7.0). 0.5 mg/mL histone III-S served as the substrate (13); 100 uM AMP-PNP, an ATP analog, was used as a control inhibitor. Incubation time was 4 hours.
T3 sequence (Q25917 whole entry): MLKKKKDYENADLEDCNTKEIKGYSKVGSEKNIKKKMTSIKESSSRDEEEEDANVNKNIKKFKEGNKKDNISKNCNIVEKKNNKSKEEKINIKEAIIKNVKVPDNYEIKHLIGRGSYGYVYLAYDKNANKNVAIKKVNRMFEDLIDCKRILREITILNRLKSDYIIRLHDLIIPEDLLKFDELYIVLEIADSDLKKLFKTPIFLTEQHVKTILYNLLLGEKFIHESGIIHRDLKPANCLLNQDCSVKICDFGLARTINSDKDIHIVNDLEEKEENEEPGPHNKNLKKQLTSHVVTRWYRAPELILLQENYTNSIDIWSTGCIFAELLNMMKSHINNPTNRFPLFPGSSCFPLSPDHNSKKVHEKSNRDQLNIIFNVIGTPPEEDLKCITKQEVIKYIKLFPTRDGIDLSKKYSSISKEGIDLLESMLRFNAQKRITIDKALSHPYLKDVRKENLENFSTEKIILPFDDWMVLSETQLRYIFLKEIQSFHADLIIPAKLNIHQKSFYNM

[3] = biological target: Calcium-dependent protein kinase 1 (Plasmodium falciparum, UniProt P62344); experiment: MMV: CDPK1 Protein kinase inhibition assay using recombinant PfCDPK1, syntide 2 peptide substrate, ATP and KinaseGlo to measure % inhibition at 1 uM MMV box compound.
[4] = biological target: T4, Putative uncharacterized protein pk7 (Plasmodium falciparum, UniProt O96214); experiment: Final concentrations were 1 uM ATP, 2 mM DTT, 20 mM MgCl2, 2 mM MnCl2, 0.01% BSA, and 6 ug/ml PK7, in a buffer of 20 mM Tris-HCl (pH 7.5). The enzyme itself was the only substrate present (since autophosphorylation occurs); 100 uM 1NA-PP1 was used as a control inhibitor. Incubation time was 3 hours.
T4 sequence (O96214 whole entry): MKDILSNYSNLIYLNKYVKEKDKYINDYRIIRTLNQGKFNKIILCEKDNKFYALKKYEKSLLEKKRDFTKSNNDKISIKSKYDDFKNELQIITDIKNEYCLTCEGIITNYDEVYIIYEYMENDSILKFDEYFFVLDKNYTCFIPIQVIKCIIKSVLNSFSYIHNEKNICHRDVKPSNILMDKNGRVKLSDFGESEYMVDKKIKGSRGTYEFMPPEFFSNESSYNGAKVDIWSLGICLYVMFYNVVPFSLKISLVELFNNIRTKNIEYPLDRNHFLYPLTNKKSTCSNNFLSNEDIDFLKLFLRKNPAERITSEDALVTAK

[5] = biological target: T5, Cdk-related protein kinase 6 (Plasmodium falciparum, UniProt O77239); experiment: Final concentrations were 1.5 uM ATP, 5 mM MnCl2, and 15 ug/ml PK6 in a buffer of 100 mM Tris-HCl (pH 7.5). 50 ug/mL MBP was provided as the substrate; 10 uM staurosporine was used as a control inhibitor. Incubation time was 3 hours and 40 minutes.The catalytic activity of each kinase was considered proportional to ATP consumed, as determined from measurements of residual [ATP] with the luciferase-based reagent Kinase-Glo (Promega) following incubation. Luminescence (proportional to residual [ATP]) was measured on the plate readers FLx800 (BioTek Instruments, Winooski, VT, USA) and MicroBeta2.
T5 sequence (O77239 whole entry): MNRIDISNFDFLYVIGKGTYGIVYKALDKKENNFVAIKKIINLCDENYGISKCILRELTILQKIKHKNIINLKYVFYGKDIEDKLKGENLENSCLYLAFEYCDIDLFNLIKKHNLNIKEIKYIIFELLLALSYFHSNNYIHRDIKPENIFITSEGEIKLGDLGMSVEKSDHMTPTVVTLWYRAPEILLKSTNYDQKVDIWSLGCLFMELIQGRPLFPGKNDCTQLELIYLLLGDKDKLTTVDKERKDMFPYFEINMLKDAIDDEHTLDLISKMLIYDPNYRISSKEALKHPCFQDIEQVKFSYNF

Measured: IC50

Lysine--tRNA ligase, sequence (Q8IDJ8 whole entry): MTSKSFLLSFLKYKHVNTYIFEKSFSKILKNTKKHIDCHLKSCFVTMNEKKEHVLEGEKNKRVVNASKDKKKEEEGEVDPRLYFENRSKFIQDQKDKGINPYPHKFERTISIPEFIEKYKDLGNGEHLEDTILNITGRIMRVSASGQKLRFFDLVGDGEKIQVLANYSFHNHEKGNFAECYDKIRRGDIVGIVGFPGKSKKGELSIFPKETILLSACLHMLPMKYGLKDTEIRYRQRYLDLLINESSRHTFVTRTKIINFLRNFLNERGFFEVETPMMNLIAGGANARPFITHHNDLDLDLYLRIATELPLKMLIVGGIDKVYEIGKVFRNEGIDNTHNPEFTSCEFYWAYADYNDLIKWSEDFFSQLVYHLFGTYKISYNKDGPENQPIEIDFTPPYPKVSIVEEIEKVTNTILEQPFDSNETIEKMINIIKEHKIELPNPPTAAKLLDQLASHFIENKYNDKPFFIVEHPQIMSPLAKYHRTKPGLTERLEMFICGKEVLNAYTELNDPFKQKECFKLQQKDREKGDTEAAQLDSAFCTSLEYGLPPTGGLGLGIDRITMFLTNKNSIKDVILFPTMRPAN
Calcium-dependent protein kinase 1, sequence (P62344 whole entry): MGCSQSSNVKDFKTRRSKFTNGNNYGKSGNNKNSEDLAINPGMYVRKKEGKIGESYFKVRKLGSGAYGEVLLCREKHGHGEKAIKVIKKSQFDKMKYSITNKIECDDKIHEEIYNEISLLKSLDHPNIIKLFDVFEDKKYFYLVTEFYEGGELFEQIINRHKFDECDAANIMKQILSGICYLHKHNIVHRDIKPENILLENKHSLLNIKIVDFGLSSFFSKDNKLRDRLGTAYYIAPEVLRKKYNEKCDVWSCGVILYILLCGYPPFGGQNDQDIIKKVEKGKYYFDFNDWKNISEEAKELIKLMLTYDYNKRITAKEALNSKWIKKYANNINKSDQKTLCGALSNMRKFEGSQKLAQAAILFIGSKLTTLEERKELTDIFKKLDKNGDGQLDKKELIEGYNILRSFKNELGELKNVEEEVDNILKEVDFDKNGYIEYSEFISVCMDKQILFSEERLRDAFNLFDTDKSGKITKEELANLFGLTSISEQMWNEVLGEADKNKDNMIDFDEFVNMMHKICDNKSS

O=C(NCc1ccco1)C1CCN(S(=O)(=O)c2ccc(Cl)cc2)CC1
> 2.5 µM: Lysine--tRNA ligase | Proline--tRNA ligase
> 1 µM: all other assays above

c1ccc(-c2ccc(-c3nc4ccccc4[nH]3)cc2)cc1
> 2.5 µM: Lysine--tRNA ligase | Proline--tRNA ligase
> 1 µM: all other assays above

CCC(C)NCC(O)(c1ccc(Cl)cc1)c1ccc(Cl)cc1 (configuration not stated)
> 2.5 µM: Lysine--tRNA ligase | Proline--tRNA ligase
> 1 µM: all other assays above

COCCNC(=O)c1ccc(OC2CCN(Cc3ccc(F)c(F)c3)CC2)c(Cl)c1
> 2.5 µM: Lysine--tRNA ligase | Proline--tRNA ligase
> 1 µM: all other assays above

O=C(CCc1ccco1)NC1CCN(CC2(c3ccc(Cl)cc3)CCC2)CC1
> 2.5 µM: Lysine--tRNA ligase | Proline--tRNA ligase
> 1 µM: all other assays above

COCCN(C(=O)Cc1cccs1)C(C(=O)NCc1ccc(OC)cc1)c1ccc(C(C)C)cc1 (configuration not stated)
> 2.5 µM: Lysine--tRNA ligase | Proline--tRNA ligase
> 1 µM: all other assays above

FC(F)(F)c1cccc(CNC2CCN(CCc3ccccc3)CC2)c1
> 2.5 µM: Lysine--tRNA ligase | Proline--tRNA ligase
> 1 µM: all other assays above

Oc1ccc(Cl)cc1CNc1nc2ccccc2[nH]1
> 2.5 µM: Lysine--tRNA ligase | Proline--tRNA ligase
> 1 µM: all other assays above

O=C(c1ccccc1F)N(Cc1ccc(Cl)cc1)c1ccccn1
> 2.5 µM: Lysine--tRNA ligase | Proline--tRNA ligase
> 1 µM: all other assays above

O=C(Nc1ccc(Cl)cc1)N1CCN(c2ccc3nncn3n2)CC1
> 2.5 µM: Lysine--tRNA ligase | Proline--tRNA ligase
> 1 µM: all other assays above

O=C(CSc1ccc2nnc(-c3cccc(F)c3)n2n1)Nc1ccc2c(c1)OCO2
> 2.5 µM: Lysine--tRNA ligase | Proline--tRNA ligase
> 1 µM: all other assays above

CCCCNCC(O)(c1ccc(Cl)cc1)c1ccc(Cl)cc1
> 2.5 µM: Lysine--tRNA ligase | Proline--tRNA ligase
> 1 µM: all other assays above

CCOc1cccc2sc(N(Cc3cccnc3)C(=O)C3CCCCC3)nc12
> 2.5 µM: Lysine--tRNA ligase | Proline--tRNA ligase
> 1 µM: all other assays above

CC(C)(C)CC(C)(C)NCC(O)COc1ccc2c(c1)CCC2 (configuration not stated)
> 2.5 µM: Lysine--tRNA ligase | Proline--tRNA ligase
> 1 µM: all other assays above

CCOc1ccc(/C=C/c2nc(=O)c3ccccc3o2)cc1
> 2.5 µM: Lysine--tRNA ligase | Proline--tRNA ligase
> 1 µM: all other assays above

O=C(Nc1ccccc1O)c1ccc(-c2ccc(Cl)cc2Cl)o1
> 2.5 µM: Lysine--tRNA ligase | Proline--tRNA ligase
> 1 µM: all other assays above

CC(O)(c1ccc(Cl)cc1)C(CN1CCCCC1)c1ccccc1 (configuration not stated)
> 2.5 µM: Lysine--tRNA ligase | Proline--tRNA ligase
> 1 µM: all other assays above

CCCCc1ccc(NS(=O)(=O)c2cc3c4c(c2)CCN4C(=O)CC3)cc1
> 2.5 µM: Lysine--tRNA ligase | Proline--tRNA ligase
> 1 µM: all other assays above

CCOc1ccccc1CNC(=O)C1c2ccccc2C(=O)N(CC(C)C)C1c1cccs1 (configuration not stated)
> 2.5 µM: Lysine--tRNA ligase | Proline--tRNA ligase
> 1 µM: all other assays above

COc1ccc(C2Sc3ccccc3N=C3C2=C(O)c2ccccc23)cc1 (configuration not stated)
> 2.5 µM: Lysine--tRNA ligase | Proline--tRNA ligase
> 1 µM: all other assays above

CCN(CC)CCCNc1nc(-c2ccc(Cl)cc2)nc2ccccc12
> 2.5 µM: Lysine--tRNA ligase | Proline--tRNA ligase
> 1 µM: all other assays above
